Experimental data from the NIST ThermoML archive (doi:10.1016/j.jct.2016.10.023).

Experiment: xn = mol fraction of the nth substance listed
Details: Constant-volume piezometry

CCCCC [pentane] + CCCO
Details | mass density [kg/m3]
492.15 K, 4052 kPa, Gas, x1 = 0.5 | 144.33
492.15 K, 4112 kPa, Gas, x1 = 0.5 | 154.72
493.15 K, 888 kPa, Gas, x1 = 0.5 | 15.54
493.15 K, 1226 kPa, Gas, x1 = 0.8 | 22.56
493.15 K, 1421 kPa, Gas, x1 = 0.2 | 24.96
493.15 K, 1591 kPa, Gas, x1 = 0.5 | 30.02
493.15 K, 1810 kPa, Gas, x1 = 0.8 | 36.74
493.15 K, 2098 kPa, Gas, x1 = 0.5 | 40.54
493.15 K, 2429 kPa, Gas, x1 = 0.5 | 51.17
493.15 K, 2601 kPa, Gas, x1 = 0.8 | 58.5
493.15 K, 2706 kPa, Gas, x1 = 0.2 | 53.08
493.15 K, 2984 kPa, Gas, x1 = 0.5 | 67.61
493.15 K, 3042 kPa, Gas, x1 = 0.8 | 73.9
493.15 K, 3148 kPa, Gas, x1 = 0.5 | 72.7
493.15 K, 3184 kPa, Gas, x1 = 0.9 | 83.5
493.15 K, 3462 kPa, Gas, x1 = 0.5 | 89.03
493.15 K, 3598 kPa, Gas, x1 = 0.5 | 95.98
493.15 K, 3742 kPa, Gas, x1 = 0.8 | 106.55
493.15 K, 3862 kPa, Fluid (supercritical or subcritical phases), x1 = 0.9 | 123.52
493.15 K, 3941 kPa, Gas, x1 = 0.5 | 122.07
493.15 K, 3987 kPa, Fluid (supercritical or subcritical phases), x1 = 0.9 | 134.31
493.15 K, 4087 kPa, Gas, x1 = 0.5 | 144.32
493.15 K, 4129 kPa, Liquid, x1 = 0.2 | 471.17
493.15 K, 4161 kPa, Gas, x1 = 0.5 | 154.71
493.15 K, 4227 kPa, Gas, x1 = 0.5 | 165.38
493.15 K, 4237 kPa, Fluid (supercritical or subcritical phases), x1 = 0.8 | 140.51
493.15 K, 4263 kPa, Gas, x1 = 0.5 | 183.12
493.15 K, 4268 kPa, Fluid (supercritical or subcritical phases), x1 = 0.9 | 164.19
493.15 K, 4335 kPa, Fluid (supercritical or subcritical phases), x1 = 0.5 | 282.8
493.15 K, 4335 kPa, Fluid (supercritical or subcritical phases), x1 = 0.8 | 156.27
493.15 K, 4414 kPa, Fluid (supercritical or subcritical phases), x1 = 0.5 | 299.12
493.15 K, 4423 kPa, Fluid (supercritical or subcritical phases), x1 = 0.8 | 170.03
493.15 K, 4439 kPa, Fluid (supercritical or subcritical phases), x1 = 0.9 | 189.73
493.15 K, 4462 kPa, Fluid (supercritical or subcritical phases), x1 = 0.8 | 176.28
493.15 K, 4502 kPa, Fluid (supercritical or subcritical phases), x1 = 0.8 | 181.09
493.15 K, 4518 kPa, Fluid (supercritical or subcritical phases), x1 = 0.9 | 202.67
493.15 K, 4547 kPa, Fluid (supercritical or subcritical phases), x1 = 0.8 | 193.44
493.15 K, 4549 kPa, Fluid (supercritical or subcritical phases), x1 = 0.5 | 320.48
493.15 K, 4592 kPa, Fluid (supercritical or subcritical phases), x1 = 0.5 | 325.77
493.15 K, 4629 kPa, Fluid (supercritical or subcritical phases), x1 = 0.9 | 221.01
493.15 K, 4679 kPa, Fluid (supercritical or subcritical phases), x1 = 0.8 | 214.17
493.15 K, 4710 kPa, Fluid (supercritical or subcritical phases), x1 = 0.8 | 219.94
493.15 K, 4720 kPa, Fluid (supercritical or subcritical phases), x1 = 0.9 | 233.41
493.15 K, 4743 kPa, Fluid (supercritical or subcritical phases), x1 = 0.9 | 236.88
493.15 K, 4769 kPa, Fluid (supercritical or subcritical phases), x1 = 0.9 | 241.29
493.15 K, 4776 kPa, Fluid (supercritical or subcritical phases), x1 = 0.5 | 345.09
493.15 K, 4792 kPa, Fluid (supercritical or subcritical phases), x1 = 0.9 | 244.6
493.15 K, 4810 kPa, Fluid (supercritical or subcritical phases), x1 = 0.8 | 235.05
493.15 K, 4875 kPa, Fluid (supercritical or subcritical phases), x1 = 0.8 | 245.71
493.15 K, 4935 kPa, Fluid (supercritical or subcritical phases), x1 = 0.8 | 258.95
493.15 K, 5020 kPa, Fluid (supercritical or subcritical phases), x1 = 0.9 | 282.43
493.15 K, 5042 kPa, Fluid (supercritical or subcritical phases), x1 = 0.8 | 272.94
493.15 K, 5149 kPa, Fluid (supercritical or subcritical phases), x1 = 0.8 | 288.82
493.15 K, 5207 kPa, Fluid (supercritical or subcritical phases), x1 = 0.5 | 373.47
493.15 K, 5245 kPa, Fluid (supercritical or subcritical phases), x1 = 0.9 | 302.14
493.15 K, 5306 kPa, Fluid (supercritical or subcritical phases), x1 = 0.8 | 299.65
493.15 K, 5423 kPa, Fluid (supercritical or subcritical phases), x1 = 0.9 | 312.8
493.15 K, 5594 kPa, Fluid (supercritical or subcritical phases), x1 = 0.8 | 315.85
493.15 K, 5904 kPa, Fluid (supercritical or subcritical phases), x1 = 0.9 | 334.55
493.15 K, 5953 kPa, Fluid (supercritical or subcritical phases), x1 = 0.5 | 398.77
493.15 K, 5998 kPa, Fluid (supercritical or subcritical phases), x1 = 0.8 | 334.37
493.15 K, 6296 kPa, Fluid (supercritical or subcritical phases), x1 = 0.8 | 345.91
493.15 K, 6629 kPa, Fluid (supercritical or subcritical phases), x1 = 0.9 | 354.68
493.15 K, 6775 kPa, Fluid (supercritical or subcritical phases), x1 = 0.5 | 417.91
493.15 K, 7003 kPa, Fluid (supercritical or subcritical phases), x1 = 0.8 | 362.51
493.15 K, 7649 kPa, Liquid, x1 = 0.2 | 510.49
493.15 K, 8441 kPa, Fluid (supercritical or subcritical phases), x1 = 0.5 | 441.69
493.15 K, 9382 kPa, Fluid (supercritical or subcritical phases), x1 = 0.5 | 452.03
493.15 K, 10256 kPa, Fluid (supercritical or subcritical phases), x1 = 0.9 | 407.97
493.15 K, 10826 kPa, Fluid (supercritical or subcritical phases), x1 = 0.8 | 418.91
493.15 K, 11783 kPa, Fluid (supercritical or subcritical phases), x1 = 0.5 | 468.97
493.15 K, 14598 kPa, Liquid, x1 = 0.2 | 548.05

Liquid, x1 = 0.5
Details | mass density [kg/m3]
492.65 K | 282.81
492.95 K | 270.96
